Experimental data taken from US20260152498A1, “4,5,6,7-TETRAHYDRO-1H-PYRAZOLO[4,3-c]PYRIDINE COMPOUNDS AND DERIVATIVES AS USP1 INHIBITORS” (EXELIXIS, INC., priority 2022, published 2026).

What was measured:
USP1-UAF1 complex [1] = molecular target: T1, USP1-UAF1 complex (Homo sapiens, UniProt O94782); settings: 1.2 µM
Protocol: (§1) Biochemical Assay: The compounds were evaluated for their potential to inhibit USP1-UAF1 complex (Boston Biochem, Catalog: E568-050) using a fluorescence-based assay. The final concentrations of USP1-UAF1 complex protein and substrate Ubiquitin-Rhodamine-110 (R&D systems, Catalog U-555-050) used in the assay were 0.45 and 150 nM respectively. 50 mM HEPES pH. 7.5, 100 mM NaCl, 0.5 mM EDTA, 1 mM TCEP, 10% BSA, 0.01% Tween 20 buffer was used in the assay. The total assay volume was 20 μL. […] The final DMSO concentration in the assay was 1%. The compounds were pre-incubated with USP1-UAF1 complex at 25° C. for 15 min. After preincubation, required concentration of substrate was added and incubated at 25° C. for 60 min. Fluorescence at Excitation: 485 nm, Emission: 535 nm was measured in Victor-5 from Perkin Elmer.
(§2) To determine IC50 values, dose response curves were generated by plotting percentage inhibition as a function of inhibitor concentration and the data was fitted to sigmoidal non-linear regression equation (variable slope) using Graph Pad prism software V8.
(§3) The compounds were screened by the above-mentioned assay procedure.

USP1-UAF1 complex [2] = molecular target: T1, USP1-UAF1 complex; assay: biochemical
Protocol: as §1, §2, §3

T1 sequence (O94782 whole entry): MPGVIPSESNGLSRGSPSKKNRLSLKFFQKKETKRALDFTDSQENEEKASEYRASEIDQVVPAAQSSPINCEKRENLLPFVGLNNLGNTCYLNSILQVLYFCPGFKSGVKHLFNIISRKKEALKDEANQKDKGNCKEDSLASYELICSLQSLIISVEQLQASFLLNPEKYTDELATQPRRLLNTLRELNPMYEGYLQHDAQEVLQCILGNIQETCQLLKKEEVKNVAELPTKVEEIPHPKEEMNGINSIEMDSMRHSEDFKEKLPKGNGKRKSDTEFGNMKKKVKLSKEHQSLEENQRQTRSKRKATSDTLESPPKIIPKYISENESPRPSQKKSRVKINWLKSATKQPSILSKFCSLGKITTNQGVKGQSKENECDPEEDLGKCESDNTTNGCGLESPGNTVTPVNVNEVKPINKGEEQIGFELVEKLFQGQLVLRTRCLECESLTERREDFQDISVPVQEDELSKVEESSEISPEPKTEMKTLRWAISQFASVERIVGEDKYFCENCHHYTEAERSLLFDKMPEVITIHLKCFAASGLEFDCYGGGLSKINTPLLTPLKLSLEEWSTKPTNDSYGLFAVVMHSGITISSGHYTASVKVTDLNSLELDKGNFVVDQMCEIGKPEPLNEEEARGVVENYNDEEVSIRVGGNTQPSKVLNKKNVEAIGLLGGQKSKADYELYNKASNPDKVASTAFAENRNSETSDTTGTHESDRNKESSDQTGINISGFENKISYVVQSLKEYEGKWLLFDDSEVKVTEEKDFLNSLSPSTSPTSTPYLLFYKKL
T1 sequence (Q8TAF3 whole entry partner): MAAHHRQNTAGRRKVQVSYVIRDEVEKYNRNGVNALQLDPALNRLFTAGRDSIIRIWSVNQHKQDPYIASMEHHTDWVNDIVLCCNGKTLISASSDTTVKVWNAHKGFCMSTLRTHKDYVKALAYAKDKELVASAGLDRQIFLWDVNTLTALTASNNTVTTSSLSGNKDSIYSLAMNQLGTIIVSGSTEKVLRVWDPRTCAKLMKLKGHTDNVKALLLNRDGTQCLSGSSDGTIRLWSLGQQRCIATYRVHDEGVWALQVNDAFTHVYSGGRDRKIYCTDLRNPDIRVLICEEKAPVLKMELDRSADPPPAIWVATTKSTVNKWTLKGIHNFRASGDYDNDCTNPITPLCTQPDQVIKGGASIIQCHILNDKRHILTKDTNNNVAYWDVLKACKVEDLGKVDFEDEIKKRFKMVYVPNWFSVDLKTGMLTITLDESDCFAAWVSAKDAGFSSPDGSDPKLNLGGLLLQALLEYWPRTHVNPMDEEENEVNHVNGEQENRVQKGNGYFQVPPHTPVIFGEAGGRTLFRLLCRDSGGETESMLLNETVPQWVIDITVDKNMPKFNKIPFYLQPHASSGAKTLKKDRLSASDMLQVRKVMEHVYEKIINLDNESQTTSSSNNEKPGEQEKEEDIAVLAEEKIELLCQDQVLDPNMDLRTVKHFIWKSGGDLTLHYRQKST

Row | inhibition (USP1-UAF1 complex [1]) [%] | IC50 (USP1-UAF1 complex [2]) [nM] | SMILES
1 | 96 | 50 to 100 | COc1ncnc(C2CC2)c1-c1nn(C)c2c1CN(c1cnc(-c3nc(C(F)(F)F)cn3C)cn1)CC2 [Compound 52, 3-(4-cyclopropyl-6-methoxypyrimidin-5-yl)-1-methyl-5-(5-(1-methyl-4-(trifluoromethyl)-1H-imidazol-2-yl)pyrazin-2-yl)-4,5,6,7-tetrahydro-1H-pyrazolo[4,3-c]pyridine]
2 | 99 | < 50 | COc1ncnc(C2CC2)c1-c1nn(C)c2c1CN(c1ccc(-c3nc(C(F)(F)F)cn3C3CCC3)cn1)CC2 [Compound 16, 5-(5-(1-cyclobutyl-4-(trifluoromethyl)-1H-imidazol-2-yl)pyridin-2-yl)-3-(4-cyclopropyl-6-methoxypyrimidin-5-yl)-1-methyl-4,5,6,7-tetrahydro-1H-pyrazolo[4,3-c]pyridine]
3 | 100 | < 50 | COc1ncnc(C2CC2)c1-c1nn(C)c2c1CN(c1ccc(-c3nc(C(F)(F)F)cn3C)c(F)c1)CC2 [Compound 44, 3-(4-cyclopropyl-6-methoxypyrimidin-5-yl)-5-(3-fluoro-4-(1-methyl-4-(trifluoromethyl)-1H-imidazol-2-yl)phenyl)-1-methyl-4,5,6,7-tetrahydro-1H-pyrazolo[4,3-c]pyridine]
4 | 89 | > 100 | COc1ncnc(C2CC2)c1-c1nn(C2CC2)c2c1CN(c1ccc(-c3nc(C(F)(F)F)cn3C)cn1)CC2 [Compound 32, 1-cyclopropyl-3-(4-cyclopropyl-6-methoxypyrimidin-5-yl)-5-(5-(1-methyl-4-(trifluoromethyl)-1H-imidazol-2-yl)pyridin-2-yl)-4,5,6,7-tetrahydro-1H-pyrazolo[4,3-c]pyridine]
